From ChEMBL document CHEMBL1133749, “Water-soluble, core-modified porphyrins as novel, longer-wavelength-absorbing sensitizers for photodynamic therapy” (J Med Chem, 2000)

How the values were obtained:
[1] = test system: Murine T-cell line; assay: Compound at >50 ug/mL was tested for photoactivity against murine T-cell line; No significant photoactivity; type: functional, cell-based; conditions: Mus musculus
[2] = test system: Colon 26; assay: Photodynamic therapy against COLO-26 cells in culture; type: cell-based; conditions: Mus musculus, Colon 26, light or radiation study; read-out: LD50 (the source's name)
[3] = test system: Colon 26; assay: Lethal dose required for photodynamic therapy against COLO-26 cells in culture; type: toxicity, cell-based
[4] = test system: Mus musculus; assay: Tested in vivo for times to mm**3 tumor volume against BALB/c mice bearing COLO-26 tumors at a dose 3.25 mg/Kg; type: functional
[5] = test system: Mus musculus; assay: Tested in vivo for times to mm**3 tumor volume against BALB/c mice bearing COLO-26 tumors at a dose 10 mg/Kg; type: functional

Row | SMILES | NS [1] | CC50 [2] | CC50 ([3]; Mus musculus, Colon 26, light or radiation study, read-out: LD50 (the source's name)) | LD90 ([3]; mouse) | Time [4] | Time [5]
1 | O=S(=O)([O-])c1ccc(-c2c3nc(c(-c4ccc(S(=O)(=O)[O-])cc4)c4ccc([nH]4)c(-c4ccc(S(=O)(=O)[O-])cc4)c4ccc([nH]4)c(-c4ccc(S(=O)(=O)[O-])cc4)c4nc2C=C4)C=C3)cc1.[Na+].[Na+].[Na+].[Na+] | No significant photoactivity | > 100 µg/mL | – | – | – | –
2 | O=S(=O)([O-])c1ccc(-c2c3nc(c(-c4ccc(S(=O)(=O)[O-])cc4)c4ccc(s4)c(-c4ccc(S(=O)(=O)[O-])cc4)c4nc(c(-c5ccc(S(=O)(=O)[O-])cc5)c5ccc2s5)C=C4)C=C3)cc1.[Na+].[Na+].[Na+].[Na+] | No significant photoactivity | – | < 25 µg/mL | > 50 µg/mL | 198 h | 276 h
